Assay results taken from PubChem BioAssay AID1745844 (Carcinogenic Potency Database (CPDB), 2022).
Activity calls are given as the source filed them. No rule for the calls is given here.

Test system: rodent lifetime carcinogenesis bioassay, tumor incidence TD50
Experiment: chronic cancer bioassays in animals – CPDB, compiled studies (AID 1745844)

**Q.** Which carcinogen call (mouse, strain B6C3F1, females, by gavage, site: any site (literature study), lesion: several types, types named in the paper, dosed 103 weeks, study length 105 weeks) does the source give for `Nc1cc([N+](=O)[O-])ccc1O` here?
**A.** Its carcinogen call is “negative (inactive)”.

**Q.** What about the TD50 (mouse, strain B6C3F1, females, by gavage, site: liver, lesion: hepatocellular adenoma + hepatocellular carcinoma + neoplastic nodule, dosed 103 weeks, study length 105 weeks) of the same compound?
**A.** Its TD50 is 2160 mg/kg/day.

**Q.** What about the TD50 (mouse, strain B6C3F1, females, by gavage, site: lung, lesion: alveolar/bronchiolar adenoma + alveolar/bronchiolar carcinoma, dosed 103 weeks, study length 105 weeks) of the same compound?
**A.** The TD50 was 2180 mg/kg/day.

**Q.** What about the TD50 (mouse, strain B6C3F1, males, by gavage, site: abdominal cavity + liver + mesenteric lymph node + pancreas + spleen + subcutaneous tissue, lesion: hemangioma + hemangiosarcoma, dosed 103 weeks, study length 105 weeks) of the same compound?
**A.** The TD50 was 798 mg/kg/day (inactive).

**Q.** And the TD50 (mouse, strain B6C3F1, males, by gavage, site: any site (literature study), lesion: several types, types named in the paper, dosed 103 weeks, study length 105 weeks)?
**A.** Its TD50 is 582 mg/kg/day.

**Q.** What about the carcinogen call (rat, strain Fischer 344, females, by gavage, site: any site (literature study), lesion: several types, types named in the paper, dosed 103 weeks, study length 105 weeks) of the same compound?
**A.** Its carcinogen call is “negative (inactive)”.

**Q.** And the TD50 (rat, strain Fischer 344, males, by gavage, site: any site (literature study), lesion: several types, types named in the paper, dosed 103 weeks, study length 105 weeks)?
**A.** The TD50 was 84.1 mg/kg/day.

**Q.** And the TD50 (rat, strain Fischer 344, males, by gavage, site: kidney cortex, lesion: adenoma, NOS, dosed 103 weeks, study length 105 weeks)?
**A.** Its TD50 is 839 mg/kg/day.

**Q.** And the TD50 (rat, strain Fischer 344, males, by gavage, site: liver, lesion: hepatocellular adenoma + hepatocellular carcinoma + neoplastic nodule, dosed 103 weeks, study length 105 weeks)?
**A.** The TD50 was 1300 mg/kg/day.

**Q.** And the TD50 (rat, strain Fischer 344, males, by gavage, site: liver, lesion: hepatocellular carcinoma + neoplastic nodule, dosed 103 weeks, study length 105 weeks)?
**A.** The TD50 was 1300 mg/kg/day.

**Q.** What about the TD50 (rat, strain Fischer 344, males, by gavage, site: subcutaneous tissue, lesion: fibroma, dosed 103 weeks, study length 105 weeks) of the same compound?
**A.** Its TD50 is 584 mg/kg/day.

**Q.** What about the TD50 (rat, strain Fischer 344, males, by gavage, site: subcutaneous tissue, lesion: fibrosarcoma + fibroma + neurofibrosarcoma + sarcoma, NOS, dosed 103 weeks, study length 105 weeks) of the same compound?
**A.** The TD50 was 458 mg/kg/day.

**Q.** And the TD50 (rat, strain Fischer 344, males, by gavage, site: testis, lesion: interstitial-cell tumor, dosed 103 weeks, study length 105 weeks)?
**A.** Its TD50 is 68.2 mg/kg/day.

**Q.** For `O=NN1CCOC(O)C1` (stereo not given), which TD50 (rat, strain Fischer 344, females, in drinking water, site: liver, lesion: hepatocellular carcinoma, dosed 50 weeks, study length 122 weeks) is on record?
**A.** Its TD50 is 14.9 mg/kg/day (inactive).

**Q.** `CC(C)COC(=O)c1ccc(O)cc1` was tested. Which TD50 (mouse, strain ICR/Jcl, females, in feed, site: any site (literature study), lesion: several types, types named in the paper, dosed 102 weeks, study length 106 weeks) did it give?
**A.** The TD50 was 12300 mg/kg/day (inactive).

**Q.** What about the carcinogen call (mouse, strain ICR/Jcl, females, in feed, site: liver, lesion: one or several types, types not named, dosed 102 weeks, study length 106 weeks) of the same compound?
**A.** The carcinogen call was “negative (inactive)”.

**Q.** And the TD50 (mouse, strain ICR/Jcl, females, in feed, site: lung, lesion: one or several types, types not named, dosed 102 weeks, study length 106 weeks)?
**A.** The TD50 was 37200 mg/kg/day (inactive).

**Q.** What about the TD50 (mouse, strain ICR/Jcl, males, in feed, site: any site (literature study), lesion: several types, types named in the paper, dosed 102 weeks, study length 104 weeks) of the same compound?
**A.** Its TD50 is 6570 mg/kg/day (inactive).

**Q.** What about the TD50 (mouse, strain ICR/Jcl, males, in feed, site: liver, lesion: one or several types, types not named, dosed 102 weeks, study length 104 weeks) of the same compound?
**A.** The TD50 was 26300 mg/kg/day (inactive).

**Q.** And the carcinogen call (mouse, strain ICR/Jcl, males, in feed, site: lung, lesion: one or several types, types not named, dosed 102 weeks, study length 104 weeks)?
**A.** Its carcinogen call is “negative (inactive)”.
